The text below walks through data of patent US10538515B2, “Isatin-derived compounds, use of the compounds for the treatment of AIDS and method of treatment using these compounds” (FUNDAÇÄO OSWALDO CRUZ, priority 2016, dated 2020).

Series [1] relates to Suptl cells (T-lymphocyte cell line). Kind of series: Cytotoxicity assay (MTT). In kind it is cell-based. The protocol: The T-lymphocyte cell line (Suptl) was cultured in an RPMI 1640 medium (GIBICO). The cultures were supplemented with 10% Fetal Bovine Serum (SFB; HyClone, Logan, Utah, USA), 100 U/mL of penicillin and […] of streptomycin, and incubated at 37° C., in an atmosphere of 5% CO2. Virus stocks were prepared using the methodology described by Souza and Denizot (SOUZA, T. M. L; RODRIGUES, D. Q.; […], V. F.; MARQUES, I. P.; DE SOUZA, M. C. B. V.; […], I. C. P. P.; BOU-HABIB, D. C; FONTES, C. F. L. Characterization of HIV-1 enzyme reverse transcriptase inhibition by the compound 6-chloro-1.4-dihydro-4-oxo-1-(β-D-ribofuranosyl) quinoline-3-carboxylic acid through kinetic and in silico studies. Current HIV Research, v. 7, No 3, page 327-335, 2009. DENIZOT, F.; LANG, R. Rapid colorimetric assay for cell growth and survival. Modifications to the tetrazolium dye procedure giving improved sensitivity and reliability. The Journal of Immunological Methods, v. 89, No 2, page 271-277, 1986).
. They were then run through an MTT assay (3-(4,5-dimethylazol-2-yl)-2.5-diphenyl tetrazolium bromide) in order to analyze cell induction infeasibility. MTT is a colorimetric method that measures mitochondrial dehydrogenase activity based on the ability of live cells to reduce 3-(4,5-methylazol-2-yl)-2.5-diphenyl tetrazolium bromide salt in the product. A […] solution of 3-(4,5-dimethylthiazol-2-yl)-2.5-diphenyl tetrazolium bromide (1 mg/ml) (MTT, Sigma) was thus added to the cells, kept in Dulbecco's Modified Eagle's medium (DMEM) without serum. The MTT was removed after three hours and, after adding […] of isopropanol acid (0.04N HCl in isopropanol), the optical density (OD) was determined using a wavelength range of 570 to 690 nm, according to KUO et al (KUO, Y. C; CHEN, C. C; TSA, W. J.; HO, Y. H. Regulation of type 1 herpes simplex virus replication in vero cells by Psychotriaserpens: relationship to gene expression, DNA replication, and protein synthesis. Antiviral Research, v. 51, No 2, pages 95 to 109, 2001). The dye coloring has different optical densities, depending on mitochondrial metabolism after treating cells with different concentrations of the new derivatives or the absence thereof. The 50% cytotoxic concentration (CC50) was calculated through linear regression analysis from the dose-response curve obtained from experimental data.

Series [2] has as its target T1, recombinant HIV-1 reverse transcriptase (RTHXB2) (Human immunodeficiency virus type 1 group M subtype B, UniProt P04585).
T1 construct: The enzyme is derived from a polyprotein encoded by the virus, processed by the viral protease
Kind of series: Reverse transcriptase inhibition activity (RDDP, [3H]dTTP incorporation). The settings on record: for IC50: 50% inhibitory concentration, mean of three independent experiments, read-out: CI50 (the source's name); for IS: CC50 / CI50. Type of series: biochemical. Here is the method: Reverse Transcriptase Inhibition Activity
The RDDP activity was determined in 50 mM Tris HCl (pH 7.8), 6 mM MgCl2, 1 mM dithiothreitol, 50 mM KCl, 5 μM dTTP, […] poly (rA) oligo (dT) template primer (Pharmacia, Piscataway, N.J., USA) and 3 U of enzyme (one unit is the enzyme concentration incorporating dTTP […] per minute per mg of enzyme at 37° C. under standard conditions). The reaction isotope dilutions were prepared at 2 μCi of [3H] dTTP (49 Ci/mmol)/2,7μ dTTP. The reaction was initiated at 37° C., incubated for 30 minutes and halted with 0.5M EDTA. The precipitate was collected on Whatman 81 filter paper and washed with 0.1 M sodium phosphate. The incorporated nucleotides were measured by liquid scintillation. The 50% inhibitory concentration (Ciso) was determined by linear regression analysis of the dose-response curve obtained from experimental data. The polymerization reaction was conducted in the presence and absence of test substances, as well as the presence and absence of standards.
All tests were conducted on three separate occasions. At least three independent experiments were performed and triplicates were run for each concentration.

[3] abbreviates: 50% cytotoxic concentration, 72 hours, MTT, read-out: CC50.

Structures are written as SMILES. Like-named read-outs stand apart in the source and are kept apart here. Some results are limits rather than exact numbers.

As for `CCOP(=O)(Cn1cc(CN2C(=O)C(F)(F)c3cc(C)ccc32)nn1)OCC` [IIIe, diethyl ((4-((3,3-difluor-5-methyl-2-oxoindolin-1-yl)methyl)-1H-1,2,3-triazole-1-yl)methyl) phosphonate], the 50% cytotoxic concentration (CC50) in series [1] (setting [3]) is greater than 100 µM. The IC50 in series [2] amounted to 2200 nM.
Consider `CCOP(=O)(Cn1cc(CN2C(=O)C(F)(F)c3cc(Cl)ccc32)nn1)OCC` [IIIf, diethyl ((4-((5-chloro-3.3-difluor-2-oxoindolin-1-yl)methyl)-1H-1,2,3-triazole-1-yl)methyl) phosphonate], for which the CC50 in series [1] (setting [3]) worked out at 1900 µM. Moreover, in series [2], the “RT enzyme inhibition activity compared with benchmarks (in words)” value was “more active than the nevirapine and tenofovir benchmarks”; the IC50 was 900 nM; the IS is 2106.
For the compound `CCOP(=O)(Cn1cc(CN2C(=O)C(O)(C#CC3CC3)c3cc(Cl)ccc32)nn1)OCC` (centres unmarked) [IIf, diethyl ((4-((5-chloro-3-(cyclopropylethanol)-3-hydroxy-2-oxoindolin-1-yl)methyl)-1H-1,2,3-triazole-1-yl)methyl) phosphonate], in series [1] (setting [3]), the CC50 was greater than 100 µM. Further, the IC50 in series [2] stood at 3200 nM.
As for `C[C@H](Cn1cnc2c(N)ncnc21)OCP(=O)(O)O` [Tenofovir, reference compound], the half-maximal cytotoxic concentration (CC50) in series [1] amounted to 680 µM. Also, in series [2], the IC50 stood at 1200 nM and the IS is 567.

The CC50 is the concentration giving 50% cytotoxicity.
